Test results from article PMC11672137, “High-Affinity Lectin Ligands Enable the Detection of Pathogenic Pseudomonas aeruginosa Biofilms: Implications for Diagnostics and Therapy” (JACS Au, 2024).

What was measured:
[1] = tested on: P. aeruginosa PAO-infected murine lung sections; experiment: CLSM of lung sections of infected and uninfected mice; format: in vivo; settings: after i.v. injection
Method: For more detailed insights into the localization of divalent LecA ligand 21 and the control Sulfo-Cyanine7, lung sections of infected and uninfected mice were prepared and analyzed by CLSM. […] Signals corresponding to 21 were localized in cellular accumulations around medium-sized blood vessels. Particle-shaped signals and signals clustered into larger dots were observed. […] Possibly, signals detected in lung sections stained with a divalent LecA imaging probe are due to complexes of membrane-bound LecA with 21. These particle-shaped complexes probably represent the divalent imaging probe 21 bound to bacterial cells. Additionally, it is possible that larger dots are attributed to accumulated bacteria in phagocytes such as neutrophils, monocytes, and dendritic cells. However, intracellular detection using the divalent LecA imaging probe 21 has not yet been analyzed and requires further experiments.
Figure 7 Confocal laser scanning microscopy analysis of P. aeruginosa PAO-infected murine lung sections using divalent LecA imaging probe 21. Sections of cryopreserved murine lungs infected with P. aeruginosa were prepared and analyzed by CLSM after intravenous injection of divalent LecA imaging probe 21 (A) or the control Sulfo-Cyanine7 free acid (B). Lung sections of uninfected animals were used as a control after i.v. injection of 21 (C) or control Sulfo-Cyanine7 free acid (D). Cell nuclei are shown in red (DAPI) and green signals correspond to 21 or Sulfo-Cyanine7 free acid, respectively. Green signals were detected only in infected lung sections after injection of divalent LecA ligand 21. Signals were located in cellular accumulations around medium-sized blood vessels. Scale bar for A and B = 100 μm and for C and D = […]. […]
Lung sections and ex vivo imaging of P. aeruginosa
Sections of 8 µm were made from the frozen lung lobes using a cryostat (Leica, Germany). The sections were mounted on adhesive slides, dried overnight at room temperature and mounted with a DAPI containing gel. Confocal imaging was performed on a Leica SP8 […]
system equipped with a super -continuum white light laser (WLL) and a multi - photon laser source (MP) through a water immersion objective (Leica HC FLUOTAR L 25x/1,0 with a motorized correction ring). Images (1024x1024 pixels) were acquired using the MP excitation of 720 nm and emission band ([…]) for detecting DAPI and the WLL at 730 nm excitation with an emission band 748 nm – 848 nm for Cyanine7 employing non-descanned or descanned HyD detectors, respectively. Further image analysis and image overlay was performed in ImageJ2 software.27 […]

[2] = tested on: P. aeruginosa PAO (DSM 1707) lung infection; experiment: Optical in vivo imaging and ex situ organ analysis in acute P. aeruginosa airway infection model; design: species or system mice
Method: Encouraged by the high affinity of the imaging probes and their ability to stain P. aeruginosa biofilms in vitro, we further investigated the compounds in vivo using an acute P. aeruginosa airway infection model in mice. Intratracheal administration of P. aeruginosa PAO (DSM 1707) results in a local infection that is mainly restricted to the lungs. With the infection dose of 2 × 10^6 cfu/50 μL chosen here, the number of bacteria peaks at 6 h after infection before the host immune system clears the bacteria.[70]
Then, imaging probes, divalent LecA-targeting probe 21, LecB-targeting probe 22 and the control sulfo-Cy7 (free acid), were administered intravenously to the tail vein 2 h post infection. […] This accumulation in the lungs was then confirmed by a subsequent ex vivo analysis of the organs.
Figure 6 Optical in vivo imaging in mice and ex situ analysis of organs with P. aeruginosa PAO acute lung infection. In vivo imaging of mice with P. aeruginosa intratracheal infection (right) or uninfected control mice (left) after intravenous administration of imaging probes 2 h post infection: (A) 50 nmol/20 g divalent LecA probe 21 or (B) 100 nmol/20 g LecB probe 22. Then, explanted lungs were analyzed for fluorescence intensity, shown as a false color scale in (C) divalent LecA probe 21 (left: uninfected, right: infected) and (D) LecB probe 22 (left: uninfected; middle: uninfected control without dye; right: infected). (E) Quantification of the average radiant efficiency of the divalent LecA ligand 21 and the control sulfo-Cy7 free acid in the lungs of uninfected and infected mice. Duplicate data points and the mean are depicted. (F) Average radiant efficiency was quantified for the LecB imaging probe 22 in lungs of infected and uninfected mice. In addition, (G) further mouse organs were explanted after i.v. injection of 21 (50 nmol/20 g) or control sulfo-Cy7 free acid (50 nmol/20 g) and imaged. Organs of uninfected (left), infected (right) mice, and uninfected mice without any dye (upper middle on the sulfo-Cy7 free acid rows) were compared. Fluorescence intensities are shown as false color pictures. […]
Lung infection model and in vivo imaging of P. aeruginosa
C57BL/6J and albino (Tyrc2J) C57BL/6 mice were bred and housed at the Central Animal Facility, Hannover Medical School, Germany. Animal experiments were performed with permission number: 33.9-42502-04-16/2072 from the Lower Saxony State Office for Consumer Protection and Food Safety (LAVES), Germany. Mice were anesthetized with 3% isoflurane (CP Pharma) and infected intratracheally with 2x10^6 cfu/50 µL of P. aeruginosa PAO (DSM1707, Braunschweig, Germany) as described previously.26
50 – 100 nmol sulfo-Cyanine7-compound (divalent LecA probe 21; LecB probe 22; control sulfoCy7 free acid, CAS no.: 2104632-30-4, Lumiprobe; control sulfoCy7 azide, 20, Lumiprobe) per 20 g mouse was injected intravenously 2 h after infection. Optical imaging was performed 4 – 7 h after compound administration. Mice were anesthetized with 3% isoflurane […]
an in vivo imaging system (IVIS SpectrumCT, PerkinElmer). Subsequently mice were euthanized and organs were imaged (675/760 nm) ex situ individually. To enhance Cyanine7 specific fluorescent signal spectral unmixing was performed on in vivo images using LivingImage 4.7 (PerkinElmer). […]

[3] = biological target: T1, LecB (PAO1) (Pseudomonas aeruginosa, UniProt Q9HYN5); experiment: Direct binding assay based on fluorescence polarization, titration with LecB
T1 construct: made in house
T1 sequence (Q9HYN5 entry or part of it): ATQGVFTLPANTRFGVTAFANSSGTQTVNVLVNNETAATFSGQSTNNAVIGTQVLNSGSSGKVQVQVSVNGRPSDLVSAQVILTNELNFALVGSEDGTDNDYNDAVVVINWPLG
Method: Averages and standard deviations were determined from at least three independent titrations of technical triplicates each.
(§1) Direct binding affinity determination of LecA and LecB imaging probes was performed with direct titration of protein and imaging probes in TBS/Ca2+ buffer. Protein dilution series was prepared in 96 well plates and 10 µL of each dilution in triplicates were mixed with 10 µL of fluorescent compound (20 nM) in 384-well microtiter plates (Greiner Bio-One, Germany, cat no 781900). The plates were centrifuged (1 min, 500 g), sealed and incubated for 2 h in dark wet chamber under gentle shaking. Fluorescence was measured on a PheraStar FS plate reader (BMG Labtech GmbH, Germany) with excitation filters at 485 nm and emission filters at 535 nm. The data were analysed with MARS Data Analysis Software (BMG Labtech GmbH, Germany) to calculate Kd values.

[4] = tested on: P. aeruginosa PAO1 biofilm aggregates; experiment: In vitro biofilm staining under static conditions (CLSM); format: cell-based, Pseudomonas aeruginosa; settings: 10 μM probe
Method: The ability of LecA- and LecB-targeting probes to image P. aeruginosa biofilms was evaluated in vitro. P. aeruginosa PAO1, constitutively expressing mCherry from plasmid pMP7605,[56] was cultivated in microtiter plates under shaking conditions to form biofilm aggregates, as reported previously.[43] Fluorescein-carbohydrate conjugates were added to the bacterial culture to reach a final concentration of 10 μM and biofilms were analyzed by confocal laser scanning microscopy (CLSM) under static conditions (Figures 2 and S4). […] To our surprise, the intended negative control xyloside 8 also stained the P. aeruginosa biofilms (Figures 2C and S4). In all cases, the green signal originating from the fluorescein conjugates was not homogeneously spread over the entire structure of the biofilm aggregates, but a certain heterogeneity was observed across biofilm regions as bright spots. Further, the intensity of staining varied between replicates (see the Supporting Information for individual experiments). […] Instead, only a very faint green shadow was detected for 9 indicating its suitability as a negative control. Thus, the observed biofilm staining with imaging probes 2, 3, 6, 7 and also xyloside 8 was carbohydrate dependent and while 2, 3 and 6, 7 are ligands of LecA and LecB, respectively, the molecular mechanism of xyloside 8 remains elusive.
One representative image of stained aggregates is shown. […] Scale bar = 50 μm.
P. aeruginosa PAO1 expressing the red fluorescent protein mCherry (pMP7605)23 was selected for this study. For this, P. aeruginosa PAO1 (DSM 19880, Braunschweig, Germany) was transformed with the mCherry plasmid (pMP7605).23 Bacteria were stored at -80 °C. For experimental use, bacteria were streaked on lysogeny broth (LB) agar (1% tryptone, 1% NaCl, 0,5% yeast extract, 1.3% agar) containing 60 µg/mL gentamicin (Gm) and incubated at 37 °C overnight. For liquid cultures, bacterial colonies were transferred from LB agar to 10 mL LB (1% tryptone, 1% NaCl, 0,5% yeast extract) containing 60 µg/mL Gm and incubated at 37 °C and 180 rpm overnight. For exponential growth, 10 mL of LB containing 60 µg/mL Gm were inoculated with P. aeruginosa PAO1 mCherry (pMP7605)23 using an overnight liquid culture […]
In vitro biofilm staining under static conditions
Biofilm staining experiments were performed in analogy to Wagner et al. with P. aeruginosa PAO1 pMP7605 (Figure S4).23,24 Bacterial overnight cultures were inoculated from single colonies in 5 mL LB supplemented with gentamicin (120 µg/mL) and grown at 37 °C and 180 rpm. The bacterial overnight cultures were then diluted to OD600 of 0.02 with LB and 500 µL of culture per well were transferred to 24-well plate (24CG, Art. No. 5231 or 24FC, Art. No. 3231). The biofilm was grown under shaking conditions (180 rpm) at 37 °C for 20–24 h. Biofilm aggregates were visualized using a confocal laser scanning microscope (Leica TCS Sp8 CLSM) using a 25× numerical-aperture water objective. Z-stacks (463 x 463 μm) were recorded every 2 μm for mCherry (ex.: 561 nm, red) and for fluorescein containing imaging compounds (ex.: 488 nm, green). […]
Maximum Intensity Projections (contrast range automatically adjusted by Imaris). Only one staining experiment was carried out for imaging probes 4 and S26, all other fluorescein conjugates were analyzed in at least three independent experiments.

[5] = biological target: T2, LecA (Pseudomonas aeruginosa, UniProt Q05097); experiment: Direct binding assay based on fluorescence polarization, titration with LecA; settings: negative controls
T2 construct: made in house
T2 sequence (Q05097 whole entry): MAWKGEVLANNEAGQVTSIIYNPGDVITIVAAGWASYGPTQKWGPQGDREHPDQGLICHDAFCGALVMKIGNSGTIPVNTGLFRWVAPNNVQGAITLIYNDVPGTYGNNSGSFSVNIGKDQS
Method: The binding affinities of imaging probes 2–4 for LecA were determined using a direct binding assay based on fluorescence polarization (FP).[47]
(A, C) Monovalent LecA imaging probes 2–4 based on phenyl β-D-galactoside (1) were titrated with LecA. […] (E) Xyloside-fluorescein conjugate (8) and azido fluorescein (9) served as negative controls in titrations with LecA and LecB, respectively. Averages and standard deviations were determined from at least three independent titrations of technical triplicates each.
as §1

SMILES	Cyanine7 signals in lung sections, infected mice [1]	Cyanine7 signals in lung sections, uninfected mice [1]	Kd [3]	Staining of biofilm aggregates [4]	other results
CN1/C(=C/C=C2C=C(/C=C/C3=[N+](CCCCCC(=O)NCCCn4cc(CCN(Cc5ccc(NC(=O)CCc6ccc(O[C@@H]7O[C@H](CO)[C@H](O)[C@H](O)[C@H]7O)cc6)cc5)Cc5ccc(NC(=O)CCc6ccc(O[C@@H]7O[C@H](CO)[C@H](O)[C@H](O)[C@H]7O)cc6)cc5)nn4)c4ccc(S(=O)(=O)[O-])cc4C3(C)C)CCC/2)C(C)(C)c2cc(S(=O)(=O)O)ccc21 [compound 21]	Cyanine7 signals were exemplarily visible	no signals were detected			Average fluorescence radiant efficiency of explanted lungs ([2]; ex vivo analysis of organs, infected vs uninfected mice): elevated compared with uninfected mice; Cyanine7 signal in lung area, optical in vivo imaging ([2]; i.v. 2 h post infection, infected vs uninfected mice, 21 50 nmol/20 g, 22 100 nmol/20 g): elevated Cyanine7 signals in the area of the lung of infected mice compared to uninfected mice; Fluorescence ex vivo in kidneys ([2]; infected vs uninfected animals): moderately increased signals compared to uninfected animals; Fluorescence ex vivo in lungs of uninfected animals compared to control sulfo-Cyanine7 (free acid) ([2]; uninfected mice, ex vivo quantification): a certain accumulation in the lungs of uninfected animals
C[C@@H]1O[C@H](CNS(=O)(=O)c2ccc(OCc3cn(CCOCCOCCOCCNC(=S)Nc4ccc5c(c4)C(=O)OC54c5ccc(O)cc5Oc5cc(O)ccc54)nn3)cc2)[C@@H](O)[C@H](O)[C@@H]1O [compound 7]			840 ± 110 nM	accumulated at the biofilm aggregates, although with weaker staining	
C[C@@H]1O[C@H](CNS(=O)(=O)c2ccc(-c3cn(CCOCCOCCOCCNC(=S)Nc4ccc5c(c4)C(=O)OC54c5ccc(O)cc5Oc5cc(O)ccc54)nn3)s2)[C@@H](O)[C@H](O)[C@@H]1O [compound 6]			1650 ± 140 nM	accumulated at the biofilm aggregates, although with weaker staining	
O=C1OC2(c3ccc(O)cc3Oc3cc(O)ccc32)c2ccc(NC(=S)NCCOCCOCCOCCn3cc(CNc4ccc(S[C@@H]5OC[C@@H](O)[C@H](O)[C@H]5O)cc4)nn3)cc21 [compound 8]				also stained	Binding to LecB in direct FP titration ([3]; negative control): inability to bind; Binding to LecA in direct FP titration [5]: inability to bind
C[N+]1=C(C=CC2=CC(=CC=C3N(CCCCCC(=O)O)c4ccc(S(=O)(=O)[O-])cc4C3(C)C)CCC2)C(C)(C)c2cc(S(=O)(=O)[O-])ccc21.[Na+] [Sulfo-Cyanine7, reference compound]	no signals were detected	no signals were detected			
